According to US20260242416A1, “ANTIMICROBIAL PEPTIDES” (priority 2023, published 2026):
Entries after “also recorded” stand apart in the source; their conditions may differ. Where a SMILES comes first, the peptide text is derived from it.

Legend:
[1] = test system: E. coli ATCC 25922, Salmonella Enteritidis, S. aureus ATCC 29213; assay: Broth microdilution, panel result (at least one / all strains), Example 2; format: cell-based; set-up: key to inhibitory activity (asterisk): *Indicates inhibitory activity; conditions: for inhibitory activity (asterisk): Table 14, against at least one of E. coli ATCC 25922, Salmonella Enteritidis, S. aureus ATCC 29213
How it was run: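 CLSI broth microdilution adapted for cationic peptides, in MHB with a final inoculum of 2-8×10^5 cfu/mL in polypropylene plates. Peptides were serially diluted from 128 down to 0.5 μg/mL and incubated 20-24 h at 37° C. MIC is the lowest concentration with no visible growth.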

[2] = test system: Escherichia coli ATCC 25922; assay: Antimicrobial susceptibility testing (MIC/MBC), Example 1; format: cell-based; conditions: Table 3; footnote: wild-type Escherichia coli ATCC 29522; minimum of three independent experiments
Protocol: Twenty-one putative AMP sequences identified using the rAMPage pipeline were validated through a minimum of three AST experiments performed independently on separate days. In these tests, the AMP activity was assessed using two metrics: minimum inhibitory concentration and minimum bactericidal concentration (MIC and MBC, respectively). MIC and MBC values were determined using procedures outlined by the Clinical and Laboratory Standards Institute (CLSI), with the recommended adaptations for the testing of cationic AMPs described previously. “Wild-type” strains of Escherichia coli (E. coli 25922) and Staphylococcus aureus (S. aureus 29213) were purchased from the American Type Culture Collection (ATCC; Manassas, VA, USA) and were used for screening of antimicrobial activity. Briefly, putative AMPs were synthesized by Genscript (Piscataway, NJ, USA) and received in lyophilized format. These peptides were suspended using ultrapure water (Life Technologies, Grand Island, NY, USA; Invitrogen cat #10977-015), and an 11 μL two-fold serial dilution of 1280 to 2.5 μg/mL was prepared in duplicate rows in a 96-well microtiter plate, before being combined with 100 μL standardized bacterial inoculum yielding a final duplicate testing range of 128 to 0.25 μg/mL. The bacterial inoculum was prepared using colonies isolated on non-selective agar and combined with Mueller Hinton Broth. This suspension was measured and adjusted to achieve an optical density of 0.08-0.1, equivalent to a 0.5 McFarland standard (1-2×10^8 cfu/mL). The inoculum was then diluted to a target concentration of 5±3×10^5 cfu/mL; total viable counts from the final inoculum were routinely performed to confirm the target bacterial density was achieved. […] The MIC and adjacent wells were plated onto non-selective agar; the concentration in which killed 99.9% of the inoculum following additional overnight incubation was determined to be the MBC.

[3] = test system: E. coli ATCC 25922; format: cell-based, Escherichia coli; conditions: ATCC 25922
How it was run: (§1)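 CLSI broth microdilution adapted for cationic peptides, in Mueller-Hinton broth, inoculum 2-8×10^5 cfu/mL. Peptides serially diluted from 128 to 0.5 μg/mL in polypropylene plates, incubated 20-24 h at 37° C. MIC = lowest concentration without visible growth.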

[4] = test system: S. aureus ATCC 29213; format: cell-based, Staphylococcus aureus; conditions: ATCC 29213
How it was run: as §1

[5] = test system: HEK293 cells; assay: alamarBlue cell viability assay (cytotoxicity); format: cell-based, human; conditions: concentrations up to 128 μg/mL
Protocol: (§2) The human embryonic kidney cell line HEK293 and the corresponding growth media and supplements were purchased from the ATCC. The cells were maintained in Eagle's Minimum Essential Medium (EMEM) supplemented with 10% fetal bovine serum (FBS) and 1% Penicillin-Streptomycin solution and grown in a 5% CO2 incubator at 37° C. […] Cells were incubated overnight to allow them to adhere. […] TX-100 was diluted to 2% in UltraPure deionized water and added as a positive control. Complete growth medium was added to the peptides and TX-100 containing wells. Spent growth medium of wells with adhered cells was replaced with the contents of wells containing serially diluted peptides or TX-100. Cells were incubated for four hours at 37° C. in 5% CO2 incubator. Growth medium containing peptides or TX-100 was replaced with fresh growth medium containing 10% (v/v) alamarBlue (Bio-Rad Laboratories, Hercules, CA, USA) and incubated for 20 h. Fluorescence was measured at excitation of 540 nm and emission of 590 nm in a Cytation 5 plate reader (Agilent BioTek, Winooski, VT, USA) and results recorded and analyzed with Gen5 software (Agilent BioTek, Winooski, VT, USA). The average fluorescence reads of TX-100 and growth media only wells were used to calculate 0% and 100% cell viability, respectively. The percentage of viable cells at each peptide concentration was determined by Formula 1: […]

[6] = alamarBlue cell viability assay (cytotoxicity); format: cell-based, human; conditions: human, HEK293 cells, at 128 μg/mL
Protocol: as §2

[7] = test system: Salmonella enterica serovar Enteritidis (human clinical isolate); format: cell-based; conditions: serovar Enteritidis (human clinical isolate)
How it was run: as §1

SMILES	inhibitory activity (asterisk) [1]	MIC* (μg/mL) E. coli [2]	MIC (ug/mL) E. coli [3]	MIC (ug/mL) S. aureus [4]	spectrum of antimicrobial activity ([1]; panel of E. coli, Salmonella Enteritidis, S. aureus, up to 128 μg/mL)	cytotoxicity [5]	viability at 4 h, 128 µg/mL [6]	MIC (ug/mL) S. Enteritidis [7]
CC[C@H](C)[C@H](NC(=O)CN)C(=O)N[C@@H](CC(C)C)C(=O)N[C@@H](CC(=O)O)C(=O)N[C@H](C(=O)N[C@@H](CC(C)C)C(=O)N[C@@H](CCCCN)C(=O)N[C@@H](CCC(N)=O)C(=O)N[C@@H](CC(C)C)C(=O)NCC(=O)N[C@@H](CCCCN)C(=O)N[C@@H](C)C(=O)N[C@@H](C)C(=O)N[C@H](C(=O)N[C@@H](CCC(N)=O)C(=O)NCC(=O)N[C@@H](CC(C)C)C(=O)N[C@@H](CC(C)C)C(=O)N[C@@H](CO)C(=O)N[C@@H](CCCCN)C(=O)N[C@@H](C)C(=O)N[C@@H](C)C(=O)N[C@@H](CS)C(=O)N[C@@H](CCCCN)C(=O)N[C@@H](CC(C)C)C(=O)N[C@@H](C)C(=O)N[C@@H](CCCCN)C(=O)N[C@H](C(=O)N[C@@H](CS)C(=O)O)[C@@H](C)O)C(C)C)[C@@H](C)O [AmMa1] (H-GILDTLKQLGKAAVQGLLSKAACKLAKTC-OH; N-terminus and C-terminus assumed)	12.* GILDTLKQLGKAAVQGLLSKAACKLAKTC	2 to 4 µg⁻¹ mL⁻¹	–	–	–	–	–	–
CC[C@H](C)[C@H](NC(=O)[C@H](CCCCN)NC(=O)[C@H](CS)NC(=O)[C@H](CCCCN)NC(=O)[C@H](CC(C)C)NC(=O)[C@H](CC(N)=O)NC(=O)[C@H](Cc1ccc(O)cc1)NC(=O)[C@H](CC(C)C)NC(=O)[C@H](CC(C)C)NC(=O)[C@@H](NC(=O)[C@@H](NC(=O)[C@H](C)NC(=O)[C@@H](NC(=O)[C@H](CC(N)=O)NC(=O)[C@H](CCCCN)NC(=O)[C@H](C)NC(=O)[C@@H](NC(=O)[C@H](CC(N)=O)NC(=O)[C@H](CCCCN)NC(=O)[C@H](C)NC(=O)[C@@H](NC(=O)[C@H](CC(=O)O)NC(=O)[C@H](CCSC)NC(=O)[C@H](Cc1ccccc1)NC(=O)CN)[C@@H](C)O)C(C)C)C(C)C)C(C)C)[C@@H](C)O)C(=O)N[C@H](C(=O)N[C@@H](CCCCN)C(=O)N[C@@H](C)C(=O)N[C@@H](CS)C(=O)O)[C@@H](C)O [OdMa12] (H-GFMDTAKNVAKNVAVTLLYNLKCKITKAC-OH; N-terminus and C-terminus assumed)	69.* GFMDTAKNVAKNVAVTLLYNLKCKITKAC	4 µg⁻¹ mL⁻¹	–	–	–	–	–	–
CC[C@H](C)[C@H](NC(=O)[C@H](CCCCN)NC(=O)CNC(=O)[C@H](CC(C)C)NC(=O)[C@H](CC(C)C)NC(=O)CN)C(=O)N[C@@H](CC(C)C)C(=O)NCC(=O)N[C@H](C(=O)NCC(=O)N[C@@H](CCCCN)C(=O)N[C@@H](CCCCN)C(=O)N[C@H](C(=O)N[C@@H](CC(C)C)C(=O)N[C@@H](CS)C(=O)NCC(=O)N[C@H](C(=O)N[C@@H](CO)C(=O)NCC(=O)N[C@@H](CC(C)C)C(=O)N[C@@H](CS)C(=O)O)C(C)C)C(C)C)C(C)C [PeNi9] (H-GLLGKILGVGKKVLCGVSGLC-OH; N-terminus and C-terminus assumed)	32.* GLLGKILGVGKKVLCGVSGLC	–	2 to 4 µg/mL	4 to 8 µg/mL	active against all three bacteria	low or no cytotoxicity at lower concentrations; also recorded: high levels of cytotoxicity at concentrations higher than their MICs	0%	8 to 16 µg/mL
CC[C@H](C)[C@H](NC(=O)CNC(=O)[C@H](C)NC(=O)[C@@H](NC(=O)[C@H](CC(N)=O)NC(=O)[C@H](CCCCN)NC(=O)[C@H](C)NC(=O)[C@H](C)NC(=O)CNC(=O)[C@H](CCCCN)NC(=O)[C@@H](NC(=O)[C@@H](NC(=O)[C@H](CC(=O)O)NC(=O)[C@H](CC(C)C)NC(=O)[C@H](CC(C)C)NC(=O)[C@H](CC(C)C)NC(=O)CN)[C@@H](C)O)C(C)C)C(C)C)C(=O)N[C@@H](CC(C)C)C(=O)N[C@@H](CC(C)C)C(=O)N[C@@H](CC(N)=O)C(=O)N[C@@H](CCCCN)C(=O)N[C@@H](CC(C)C)C(=O)N[C@@H](CCCCN)C(=O)N[C@@H](CS)C(=O)N[C@@H](CCCCN)C(=O)N[C@H](C(=O)N[C@H](C(=O)NCC(=O)N[C@@H](CC(=O)O)C(=O)N[C@@H](CS)C(=O)O)[C@@H](C)O)C(C)C [PeNi10] (H-GLLLDTVKGAAKNVAGILLNKLKCKVTGDC-OH; N-terminus and C-terminus assumed)	1086.* GLLLDTVKGAAKNVAGILLNKLKCKVTGDC	8 µg⁻¹ mL⁻¹	–	–	–	–	–	–
CC[C@H](C)[C@H](NC(=O)CN)C(=O)N[C@@H](CC(C)C)C(=O)N[C@H](C(=O)N[C@@H](CC(=O)O)C(=O)N[C@H](C(=O)N[C@@H](CC(C)C)C(=O)N[C@@H](CCCCN)C(=O)NCC(=O)N[C@@H](C)C(=O)N[C@@H](C)C(=O)N[C@@H](CCCCN)C(=O)N[C@@H](CC(N)=O)C(=O)N[C@H](C(=O)N[C@@H](C)C(=O)NCC(=O)N[C@H](C(=O)N[C@@H](CC(C)C)C(=O)N[C@@H](CC(C)C)C(=O)N[C@@H](CC(=O)O)C(=O)N[C@@H](CCCCN)C(=O)N[C@@H](CC(C)C)C(=O)N[C@@H](CCCCN)C(=O)N[C@@H](CS)C(=O)N[C@@H](CCCCN)C(=O)N[C@H](C(=O)N[C@H](C(=O)NCC(=O)NCC(=O)N[C@@H](CS)C(=O)O)[C@@H](C)O)[C@@H](C)CC)C(C)C)C(C)C)[C@@H](C)O)[C@@H](C)O [PeNi11] (H-GILTDTLKGAAKNVAGVLLDKLKCKITGGC-OH; N-terminus and C-terminus assumed)	1087.* GILTDTLKGAAKNVAGVLLDKLKCKITGGC	8 to 16 µg⁻¹ mL⁻¹	–	–	–	–	–	–
CC[C@H](C)[C@H](NC(=O)[C@H](CCCCN)NC(=O)[C@H](CC(=O)O)NC(=O)[C@H](CC(C)C)NC(=O)[C@@H](NC(=O)CNC(=O)[C@@H](NC(=O)[C@H](CO)NC(=O)[C@H](Cc1ccccc1)NC(=O)[C@H](CC(N)=O)NC(=O)[C@H](CCCCN)NC(=O)[C@@H](NC(=O)CNC(=O)[C@H](CCC(=O)O)NC(=O)[C@H](CCCCN)NC(=O)[C@@H](NC(=O)[C@@H](NC(=O)[C@@H](NC(=O)[C@H](Cc1c[nH]c2ccccc12)NC(=O)[C@H](CC(C)C)NC(=O)CN)[C@@H](C)O)[C@@H](C)O)[C@@H](C)CC)C(C)C)C(C)C)C(C)C)C(=O)N[C@@H](CCCNC(=N)N)C(=O)N[C@@H](CS)C(=O)N[C@@H](CCCCN)C(=O)N[C@H](C(=O)N[C@H](C(=O)NCC(=O)NCC(=O)N[C@@H](CS)C(=O)O)[C@@H](C)O)[C@@H](C)CC [PeNi14] (H-GLWTTIKEGVKNFSVGVLDKIRCKITGGC-OH; N-terminus and C-terminus assumed)	15.* GLWTTIKEGVKNFSVGVLDKIRCKITGGC	4 to 8 µg⁻¹ mL⁻¹	–	–	–	–	–	–
